The test system of test [1] is Streptozotocin-induced diabetic CD-1 mice. The test can be described thus: Advanced diabetic nephropathy, captopril and captopril/THR-123 combination (month 7-8).
In test [2] the test system is p38 MAPK. Description: p38 MAPK phosphorylation in HK-2 cells. In kind it is cell-based, human. Particulars: HK-2 cells. The source says: The significance of p38 MAPK is that this protein is implicated as a non-Smad-dependent pathway for TGF-β-dependent EMT. Other non-Smad-dependent pathways implicated in TGF-β-dependent EMT include RhoA, Ras, PI3 kinase, Notch, and Wnt signaling pathways.
It has been shown that regulation p38 MAPK activity by pro-inflammatory factors has implications in fibrosis.

For test [3], the system named is HK-2 cells. Description: TNF-α-induced inflammatory cytokine production in HK-2 cells (ELISA). The test is classed as cell-based, human. As for the experimental part:
FIG. 37 provides a bar graph showing a comparison of the effects of THR-123 (or “THR-1405”) and the specific inhibitor SB 203580 on the level of TNF-α-induced IL-6 production, an inflammatory marker, in human renal tubule epithelial cells (HK-2).
FIG. 47A-FIG. 47C Anti-inflammatory activity of THR-123. PTEC-derived HK-2 (HK-2) cells were culture on 24-well plate (30,000 cells/well). Cells are exposed to K-SFM medium alone or TNF-α (5 ng/ml). Twenty hours after TNF-α incubation, cells are washed twice by pre-warmed culture media and subsequently cells are incubated with various concentration of THR-123 or BMP7 for 60 hours. At the end of incubation, culture medias are harvested and ELISA analysis are performed. FIG. 47A: IL-6, FIG. 47B: IL-8 and FIG. 47C: ICAM-1 results are shown. Analyze are performed in triplicates and data are shown as mean±s.e.m. in the graph.
Preliminary screening for optimization was based on anti-inflammatory efficacy in an in vitro cell-based assay using a human renal tubular epithelial cell line (HK-2). The assay tested the ability of compounds to reverse the increase in production of cytokine IL-6 that resulted from stimulation of the cells with tumor necrosis factor (TNF)-α. Sequence-activity analysis was carried out using the SVA program. After six optimization cycles, THR-123 (FIG. 2A) emerged as the lead compound, which was further evaluated in other relevant anti-fibrosis assays (vide infra).
Human proximal tubular epithelial cells-derived HK-2 cells were culture on 24-well plate (30,000 cells/well). Cells are exposed to K-SFM medium alone or […] (5 ng/ml). Twenty hours after TNF-α incubation, cells are washed twice by pre-warmed culture media and subsequently cells are incubated with various concentration of THR-123 or BMP7 for 60 hours. At the end of incubation, culture medias are harvested and ELISA analysis for IL-6, IL-8 and ICAM-1 are performed.

Test [4] relates to human proximal tubule epithelial cells (HK2). Description: D-glucose-induced EMT assay, E-cadherin immunofluorescence with colorimetric image analysis. The test is classed as cell-based. Particulars: for Percent inhibition of D-glucose-induced EMT: 0% = D-glucose untreated, 100% = media without D-glucose. As for the experimental part:
Chronic hyperglycemia is a known cause of renal fibrosis in type 2 diabetes. The assay in this example induces the transdifferentiation from the epithelial to the mesenchymal phenotype (EMT) in human proximal tubule epithelial cells (HK2) by exposing them to high levels of D-glucose (100 mM and 200 mM). […] Exposure to 100 mM D-glucose results in the loss of E-cadherine expression as evidenced by the loss of the fluorescene signal. Using this assay test compounds are evaluated based on their ability to inhibit the EMT processes in the presence of high levels of D-glucose. FIGS. 4-16 are fluorescence micrographs of HK2 cells exposed to 100 mM D-glucose and 100 uM of SEQ IS NOs 1 through 11, respectively. Note that all but SEQ ID NOs 10 and 11 were able to preserve the epithelial phenotype (i.e., inhibit the EMT).
Results are provided in the context of FIG. 1 and Table 3, below. In Table 3 below, compound response is scored using image analysis as described herein in the method of Methods and Materials, part C. A 0% response corresponds to the signal for 100 mM (or 200 mM) D-glucose (untreated) while the 100% response corresponds to the signal for media in the absence of D-glucose.
It has been shown that transdifferentiation of proximal tubular epithelial cells is a critical step in the development of renal fibrosis, and that this is associated with a loss of the epithelial phenotypic marker, E-cadherin expression. This provides the basis for the development of a cell-based screening assay in which high concentrations of D-Glucose (50-100 mM) are used to induce a loss of E-cadherin expression in human renal proximal tubular epithelial (HK-2) cells, and compounds are tested for their ability to reverse the loss E-cadherin expression.
Materials: • Human proximal tubular epithelial cells, HK-2 (ATCC #CRL-2190) • Serum-free keratinocyte medium (GIBCO #17005-042, K-SFM) • Epidermal growth factor (EGF: 5 ng/mL) • Bovine pituitary extract (BPE: 40 ug/mL) • Primary antibody, Mouse IgG anti-E-cadherin (R&D Systems # MAB1838) • BSA [Sigma #A7030] • secondary antibody, FITC-conjugated Goat anti-mouse IgG (Fab2) fragment (Sigma-Aldrich # F-2653) • Paraformaldehyde (10%)) • Triton X-100 (Sigma # T-9284) • PBS (Fisher Scientific #BP399-1) • D-PBS (Invitrogen #14190-144) • Polypropylene tips (Axygen, Inc. 0.5-10 uL, cat # T-300-L-R; 1-200 uL, Cat # T-200-L-R; 1-1000 uL, Cat # T-1000-C-L-R) • 50 mL polypropylene culture tubes (Fisher Scientific, cat #06-443-18) • 24-well Coster cell culture plates (Fisher Scientific #07-200-84)
Reagents & Test Samples: • Positive control: BMP-7, assayed at concentrations 0.1 and 1 ug/mL • Test compounds (peptides): each tested at final concentrations 100 uM and 200 uM.
Assay Procedure for Cell Culture Assay: • Run assay in 24-well culture plates. • Seed HK-2 cells at a density between 25,000 and 30,000 cells per well in lmL K-SFM medium with supplements added (growth medium) • Incubate HK-2 cells for 24 hours at 37° C., and let cells attach the plate • Next Day afternoon, change the medium with K-SFM medium with no added supplements (serum free medium) in all wells except the first two control wells. • Continue incubating HK-2 cells overnight at 37° C. • Next Day, aspirate the medium from all wells. Incubate the cells in growth medium (first two control wells) or expose them to test compounds for 2 hours at 37° C. Final concentrations of each Test compound are 100 and 200 uM. BMP-7 serves as a positive control in the assay. • After incubation, add D-glucose to all wells except first two control wells. Final concentrations of D-Glucose are 50 and 100 mM. • Incubate HK-2 cells for 60 hours at 37° C. • Aspirate the medium from all wells. To the wells, add pre-warmed growth medium or serum free medium containing D-glucose alone or D-glucose and test compound or D-glucose and BMP-7. Final concentrations of D-Glucose and Test compound are the same as above. • Continue incubating HK-2 cells for 24 hours at 37° C. […]

Entries after “also recorded” stand apart in the source; their conditions may differ. Positions of bridges follow the written chain, without caps; N, C: chain ends.

`C[C@H](CS)C(=O)N1CCC[C@H]1C(=O)O` [captopril]: the mesangial matrix expansion result in test [1] (CPR p.o. 50 mg/Kg/day, THR-123 p.o. 5 mg/Kg/day, month 7 to 8) is given as “did not inhibit progression of mesangial matrix expansion”. Besides, in test [1] (month 7 to 8 treatment), the “EMT program (E-cadherin/FSP1 double positive tubules)” value is “inhibited”, the macrophage infiltration entry is reported as “partially” and the “tubule cell apoptosis (TUNEL) in diabetic kidney” value is given as “significantly inhibited apoptosis”. Further, in test [1] (month 7 to 8 treatment, listed as CPR), the macrophage infiltration result was “inhibited macrophage infiltration”.

For `C[S+]([O-])c1ccc(-c2nc(-c3ccncc3)c(-c3ccc(F)cc3)[nH]2)cc1` (centres unmarked) [SB 203580, reference compound], the “basal p38 phosphorylation” value in test [2] is on record as “inhibited p38 phosphorylation”. The “TNF-α-induced IL-6 production” value in test [3] (HK-2 cells) is given as “significantly reduced”.

As for “8 (H-CYYDNSSSVLCKKYRS-OH; disulfide 1-11; SMILES CC(C)C[C@@H]1NC(=O)[C@H](C(C)C)NC(=O)[C@H](CO)NC(=O)[C@H](CO)NC(=O)[C@H](CO)NC(=O)[C@H](CC(N)=O)NC(=O)[C@H](CC(=O)O)NC(=O)[C@H](Cc2ccc(O)cc2)NC(=O)[C@H](Cc2ccc(O)cc2)NC(=O)[C@@H](N)CSSC[C@@H](C(=O)N[C@@H](CCCCN)C(=O)N[C@@H](CCCCN)C(=O)N[C@@H](Cc2ccc(O)cc2)C(=O)N[C@@H](CCCNC(=N)N)C(=O)N[C@@H](CO)C(=O)O)NC1=O) [compound 8]”, the “Percent inhibition of D-glucose-induced EMT” value came out at 155% in test [4] (100 uM peptide) and 104% in test [4] (200 uM peptide).

Turning to “(H)-CYYDDSSSVLCKKYRS-(OH) (H-CYYDDSSSVLCKKYRS-OH; disulfide 1-11; SMILES CC(C)C[C@@H]1NC(=O)[C@H](C(C)C)NC(=O)[C@H](CO)NC(=O)[C@H](CO)NC(=O)[C@H](CO)NC(=O)[C@H](CC(=O)O)NC(=O)[C@H](CC(=O)O)NC(=O)[C@H](Cc2ccc(O)cc2)NC(=O)[C@H](Cc2ccc(O)cc2)NC(=O)[C@@H](N)CSSC[C@@H](C(=O)N[C@@H](CCCCN)C(=O)N[C@@H](CCCCN)C(=O)N[C@@H](Cc2ccc(O)cc2)C(=O)N[C@@H](CCCNC(=N)N)C(=O)N[C@@H](CO)C(=O)O)NC1=O) [SEQ ID NO: 11]”, the “preservation of the epithelial phenotype (inhibition of EMT), anti-fibrotic effect” value in test [4] (HK2 cells, high D-glucose) is reported as “very weak anti-fibrotic effect; also recorded: unable to inhibit the EMT process”. The “activity in anti-inflammatory assays” value in test [3] is recorded as “positive”.
